The source of these data is ChEMBL document CHEMBL1275420, “Transfer of embB codon 306 mutations into clinical Mycobacterium tuberculosis strains alters susceptibility to ethambutol, isoniazid, and rifampin” (2008).

≈ marks a conversion by molar mass, not a printed value.

This test relates to Mycobacterium tuberculosis. Description: Antimycobacterial activity against Mycobacterium tuberculosis isolate 210 at 37 degC after 10 to 11 days by radiometric Bactec 460TB method. In kind it is functional.
With `CC[C@@H](CO)NCCN[C@@H](CC)CO` [ETHAMBUTOL], the MIC (commonly the lowest concentration that inhibits growth of the organism) stood at 2 mg/L (≈ 9.79 µM).

Molecule `CO[C@H]1/C=C/O[C@@]2(C)Oc3c(C)c(O)c4c(O)c(c(/C=N/N5CCN(C)CC5)c(O)c4c3C2=O)NC(=O)/C(C)=C\C=C\[C@H](C)[C@H](O)[C@@H](C)[C@@H](O)[C@@H](C)[C@H](OC(C)=O)[C@@H]1C` [RIFAMPIN] showed an MIC of 0.05 mg/L (≈ 0.0608 µM).

In turn, `NNC(=O)c1ccncc1` [ISONIAZID] registered an MIC of 0.05 mg/L (≈ 0.365 µM).
